± gives the expanded uncertainty stated by the source.
Settings: Liquid, Closed cell (Static) method

## C=C(F)C(F)(F)F [2,3,3,3-tetrafluoro-1-propene]
254.1 K
  vapor or sublimation pressure: 156.8 ± 1.2 kPa
273.43 K
  vapor or sublimation pressure: 318.2 ± 1.6 kPa
293.24 K
  vapor or sublimation pressure: 592.7 ± 2.5 kPa
303.17 K
  vapor or sublimation pressure: 783.9 ± 3.4 kPa
318.08 K
  vapor or sublimation pressure: 1153.4 ± 4.8 kPa
332.97 K
  vapor or sublimation pressure: 1641.5 ± 6.8 kPa
348.4 K
  vapor or sublimation pressure: 2288.8 ± 9.1 kPa

Reference: the NIST ThermoML archive (doi:10.1016/j.fluid.2016.02.005)
